Source: patent US9695155B2, “Herbicidal substituted pyrimidinyloxy benzene compounds” (E. I. DU PONT DE NEMOURS AND COMPANY, priority 2013, dated 2017)

Tests used:
lambsquarters = test: Test C postemergence; type: in vivo, Chenopodium album; conditions: Chenopodium album, post-emergence
From the text: (§1) Seeds of plant species selected from blackgrass (Alopecurus myosuroides), Italian ryegrass (Lolium multiflorum), wheat, winter (winter wheat, Triticum aestivum), galium (catchweed bedstraw, Galium aparine), corn (Zea mays), large (Lg) crabgrass (Digitaria sanguinalis), giant foxtail (Setaria faberii), johnsongrass (Sorghum halepense), lambsquarters (Chenopodium album), morningglory (Ipomoea coccinea), yellow nutsedge (Cyperus esculentus), pigweed (Amaranthus retroflexus), ragweed (common ragweed, Ambrosia elatior), soybean (Glycine max), barnyardgrass (Echinochloa crus-galli), oilseed rape (Brassica napus), waterhemp (common waterhemp, Amaranthus rudis), kochia (Kochia scoparia), wild oat (Avena fatua), surinam grass (Brachiaria decumbens), foxtail, green (green foxtail, Setaria viridis), goosegrass (Eleusine indica), bromegrass, downy (downy bromegrass, Bromus tectorum), nightshade (eastern black nightshade, Solanum ptycanthum), cocklebur (common cocklebur, Xanthium strumarium), cupgrass, woolly (woolly cupgrass, Eriochloa villosa), bermudagrass (Cynodon dactylon), sunflower, (common oilseed sunflower, Helianthus annuus), Russian thistle (Salsola kali), and velvetleaf (Abutilon theophrasti) were planted into a blend of loam soil and sand and treated preemergence with test chemicals formulated in a non-phytotoxic solvent mixture which included a surfactant.
(§2) At the same time, plants selected from these crop and weed species and also barley, winter (winter barley, Hordeum vulgare), windgrass (Apera spica-venti), chickweed (common chickweed, Stellaria media), deadnettle (henbit deadnettle, Lamium amplexicaule), and canarygrass (littleseed canarygrass, Phalaris minor) were planted in pots containing Redi-Earth® planting medium (Scotts Company, 14111 Scottslawn Road, Marysville, Ohio 43041) comprising spaghnum peat moss, vermiculite, wetting agent and starter nutrients and treated with postemergence applications of test chemicals formulated in the same manner. Plants ranged in height from 2 to 18 cm (1- to 4-leaf stage) for postemergence treatments. Treated plants and controls were maintained in a greenhouse for 13 to 15 days, after which time all species were compared to controls and visually evaluated. Plant response ratings, summarized in Table C, are based on a scale of 0 to 100 where 0 is no effect and 100 is complete control. A dash (-) response means no test result.

giant foxtail [1] = test: Test A postemergence; type: in vivo, Setaria faberii; conditions: Setaria faberi, post-emergence, 240 h
Summary of the method: (§3)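 Scoring: eye-based comparison with untreated controls, 0 for no effect through 100 for complete control, at about day 10. Treatments: directed soil spray preemergence; foliar spray postemergence on 2–10 cm plants at the one- to two-leaf stage. Medium: loam soil with sand.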

large (Lg) crabgrass = test: Test C postemergence; type: in vivo, Digitaria sanguinalis; conditions: Digitaria sanguinalis, post-emergence
From the text: as §1, §2

soybean = test: Test C postemergence; type: in vivo, Glycine max; conditions: Glycine max, post-emergence
From the text: as §1, §2

morningglory = test: Test C postemergence; type: in vivo, Ipomoea coccinea; conditions: Ipomoea, post-emergence
From the text: as §1, §2

corn = test: Test A postemergence; type: in vivo, Zea mays; conditions: Zea mays, post-emergence, 240 h
Summary of the method: as §3

wheat = test: Test A preemergence; type: in vivo, Triticum aestivum; conditions: Triticum aestivum, pre-emergence, 240 h, read-out: Wheat plant response rating
Summary of the method: as §3

giant foxtail [2] = test: Test C postemergence; type: in vivo, Setaria faberii; conditions: Setaria faberi, post-emergence
From the text: as §1, §2

ragweed = test: Test C postemergence; type: in vivo, Ambrosia elatior; conditions: Ambrosia artemisiifolia, post-emergence
From the text: as §1, §2

pigweed [3] = test: Test C postemergence; type: in vivo, Amaranthus retroflexus; conditions: Amaranthus retroflexus, post-emergence
From the text: as §1, §2

pigweed [4] = test: Test A postemergence; type: in vivo, Amaranthus retroflexus; conditions: Amaranthus retroflexus, post-emergence
Summary of the method: as §3

[5] = 125 g ai/ha, 0 to 100 scale where 0 is no effect and 100 is complete control

Compound: Fc1cnc(Oc2ccccc2-n2cc(Br)cn2)nc1 [Compound 10, 2-[2-(4-bromo-1H-pyrazol-1-yl)phenoxy]-5-fluoropyrimidine]
- pest or weed control at 125 g/ha (lambsquarters; 125 g ai/ha, postemergence, read-out: Plant response rating (0 to 100), Lambsquarters): 75%
- pest or weed control at 250 g/ha (lambsquarters; 250 g ai/ha, postemergence, read-out: Plant response rating (0 to 100), Lambsquarters): 98%
- pest or weed control at 31 g/ha (lambsquarters; Postemergence, 31 g ai/ha, scale 0 to 100 (0 no effect, 100 complete control), 13 to 15 days, read-out: Plant response rating, Lambsquarters): 55%
- pest or weed control at 62 g/ha (lambsquarters; Postemergence, 62 g ai/ha, scale 0 to 100 (0 no effect, 100 complete control), read-out: Plant response rating, Lambsquarters): 55%
- pest or weed control at 125 g/ha (giant foxtail [1]; 125 g ai/ha, 0 to 100 scale where 0 is no effect and 100 is complete control, read-out: Plant response rating, Foxtail, Giant): 50%
- pest or weed control at 500 g/ha (giant foxtail [1]; 500 g ai/ha, 0 to 100 scale, 0 no effect, 100 complete control, read-out: Plant response rating Foxtail, Giant): 90%
- pest or weed control at 125 g/ha (large (Lg) crabgrass; 125 g ai/ha, postemergence, read-out: Plant response rating (0 to 100), Crabgrass, Large): 5%
- pest or weed control at 250 g/ha (large (Lg) crabgrass; 250 g ai/ha, postemergence, read-out: Plant response rating (0 to 100), Crabgrass, Large): 35%
- pest or weed control at 31 g/ha (large (Lg) crabgrass; Postemergence, 31 g ai/ha, scale 0 to 100 (0 no effect, 100 complete control), 13 to 15 days, read-out: Plant response rating, Crabgrass, Large): 5%
- pest or weed control at 62 g/ha (large (Lg) crabgrass; Postemergence, 62 g ai/ha, scale 0 to 100 (0 no effect, 100 complete control), read-out: Plant response rating, Crabgrass, Large): 5%
- Soybean plant response rating (crop injury, 0-100 scale) at 125 g/ha (soybean; 125 g ai/ha, postemergence, read-out: Plant response rating (0 to 100), Soybean): 85%
- Soybean plant response rating (crop injury, 0-100 scale) at 250 g/ha (soybean; 250 g ai/ha, postemergence): 95%
- Soybean plant response rating (crop injury, 0-100 scale) at 31 g/ha (soybean; Postemergence, 31 g ai/ha, scale 0 to 100 (0 no effect, 100 complete control), 13 to 15 days): 50%
- Soybean plant response rating (crop injury, 0-100 scale) at 62 g/ha (soybean; Postemergence, 62 g ai/ha, scale 0 to 100 (0 no effect, 100 complete control)): 75%
- pest or weed control at 125 g/ha (morningglory; 125 g ai/ha, postemergence, read-out: Plant response rating (0 to 100), Morningglory): 65%
- pest or weed control at 250 g/ha (morningglory; 250 g ai/ha, postemergence, read-out: Plant response rating (0 to 100), Morningglory): 85%
- pest or weed control at 31 g/ha (morningglory; Postemergence, 31 g ai/ha, scale 0 to 100 (0 no effect, 100 complete control), 13 to 15 days, read-out: Plant response rating, Morningglory): 40%
- pest or weed control at 62 g/ha (morningglory; Postemergence, 62 g ai/ha, scale 0 to 100 (0 no effect, 100 complete control), read-out: Plant response rating, Morningglory): 65%
- Corn plant response rating (crop injury, 0 = no effect, 100 = complete kill) at 125 g/ha (corn; [5]): 20%
- plant injury at 500 g/ha (corn; 500 g ai/ha, 0 to 100 scale, 0 no effect, 100 complete control, read-out: Plant response rating Corn): 50%
- plant injury at 125 g/ha (wheat; [5]): 0%
- plant injury at 500 g/ha (wheat; 500 g ai/ha, 0 to 100 scale, 0 no effect, 100 complete control, approx. 10 days): 20%
- pest or weed control at 125 g/ha (giant foxtail [2]; 125 g ai/ha, postemergence, read-out: Plant response rating (0 to 100), Foxtail, Giant): 5%
- pest or weed control at 250 g/ha (giant foxtail [2]; 250 g ai/ha, postemergence, read-out: Plant response rating (0 to 100), Foxtail, Giant): 5%
- pest or weed control at 31 g/ha (giant foxtail [2]; Postemergence, 31 g ai/ha, scale 0 to 100 (0 no effect, 100 complete control), 13 to 15 days, read-out: Plant response rating, Foxtail, Giant): 0%
- pest or weed control at 62 g/ha (giant foxtail [2]; Postemergence, 62 g ai/ha, scale 0 to 100 (0 no effect, 100 complete control), read-out: Plant response rating, Foxtail, Giant): 0%
- pest or weed control at 125 g/ha (ragweed; 125 g ai/ha, postemergence, read-out: Plant response rating (0 to 100), Ragweed): 55%
- pest or weed control at 250 g/ha (ragweed; 250 g ai/ha, postemergence, read-out: Plant response rating (0 to 100), Ragweed): 80%
- pest or weed control at 31 g/ha (ragweed; Postemergence, 31 g ai/ha, scale 0 to 100 (0 no effect, 100 complete control), 13 to 15 days, read-out: Plant response rating, Ragweed): 50%
- pest or weed control at 62 g/ha (ragweed; Postemergence, 62 g ai/ha, scale 0 to 100 (0 no effect, 100 complete control), read-out: Plant response rating, Ragweed): 50%
- pest or weed control at 125 g/ha (pigweed [3]; 125 g ai/ha, postemergence, read-out: Plant response rating (0 to 100), Pigweed): 100%
- pest or weed control at 250 g/ha (pigweed [3]; 250 g ai/ha, postemergence, read-out: Plant response rating (0 to 100), Pigweed): 100%
- pest or weed control at 31 g/ha (pigweed [3]; Postemergence, 31 g ai/ha, scale 0 to 100 (0 no effect, 100 complete control), 13 to 15 days, read-out: Plant response rating, Pigweed): 75%
- pest or weed control at 62 g/ha (pigweed [3]; Postemergence, 62 g ai/ha, scale 0 to 100 (0 no effect, 100 complete control), read-out: Plant response rating, Pigweed): 98%
- pest or weed control at 125 g/ha (pigweed [4]; 125 g ai/ha, 0 to 100 scale where 0 is no effect and 100 is complete control, read-out: Plant response rating, Pigweed): 100%
- pest or weed control at 500 g/ha (pigweed [4]; 240 h, 500 g ai/ha, 0 to 100 scale, 0 no effect, 100 complete control, read-out: Plant response rating Pigweed): 100%
